System: BCSCs
Assay: Cellular internalization pathway of bioengineered exosomes using endocytic pathway inhibitors
Assay type: cell-based
Conditions: BCSCs pretreated with inhibitor, then PKH67 labeled exosomes; microscopy and flow cytometry
Description: The mode of cellular internalization of the bioengineered exosomes was examined by using different endocytic pathway inhibitors. BCSCs were pretreated with different inhibitors including sucrose (inhibitor of clathrin-mediated endocytosis), amiloride (inhibitor of macropinocytosis), and filipin (inhibitor of caveolar uptake pathway), followed by the incubation with PKH67 labeled exosomes.

Compound	effect of inhibitor on cellular internalization of exosomes
N=C(N)NC(=O)c1nc(Cl)c(N)nc1N [amiloride]	inhibited
OC[C@H]1O[C@@](CO)(O[C@H]2O[C@H](CO)[C@@H](O)[C@H](O)[C@H]2O)[C@@H](O)[C@@H]1O [sucrose]	inhibited

Reference: patent publication US10874610B2, “Extracellular vesicle-based diagnostics and engineered exosomes for targeted therapeutics against cancer” (Northwestern University, priority 2016, dated 2020)
